{"source": "ChEMBL document CHEMBL5465560", "about": "“Selectivity Literature for EUbOPEN Chemogenomic Library” (2024)", "key": {"[1]": {"target": "Phosphorylase b kinase gamma catalytic chain, skeletal muscle/heart isoform (Homo sapiens) (UniProt Q16816)", "sequence (Q16816 whole entry, looked up, canonical isoform)": "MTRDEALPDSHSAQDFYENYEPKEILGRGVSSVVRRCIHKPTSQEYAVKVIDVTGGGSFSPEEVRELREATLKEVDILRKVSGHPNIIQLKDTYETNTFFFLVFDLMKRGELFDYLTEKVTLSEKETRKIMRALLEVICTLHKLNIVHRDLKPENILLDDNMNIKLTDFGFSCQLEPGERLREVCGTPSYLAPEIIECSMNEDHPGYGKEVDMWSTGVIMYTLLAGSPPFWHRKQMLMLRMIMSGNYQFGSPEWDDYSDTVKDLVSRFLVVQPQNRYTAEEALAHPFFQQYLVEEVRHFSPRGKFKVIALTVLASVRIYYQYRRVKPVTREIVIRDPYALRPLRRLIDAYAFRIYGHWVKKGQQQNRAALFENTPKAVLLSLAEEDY", "test": "Selectivity interaction (KinomeScan (DiscoverX)) EUB0000229b PHKG1", "settings": "at 10 µM"}, "[2]": {"target": "Serine/threonine-protein kinase 38-like (Homo sapiens) (UniProt Q9Y2H1)", "sequence (Q9Y2H1 2-464 limits assumed)": "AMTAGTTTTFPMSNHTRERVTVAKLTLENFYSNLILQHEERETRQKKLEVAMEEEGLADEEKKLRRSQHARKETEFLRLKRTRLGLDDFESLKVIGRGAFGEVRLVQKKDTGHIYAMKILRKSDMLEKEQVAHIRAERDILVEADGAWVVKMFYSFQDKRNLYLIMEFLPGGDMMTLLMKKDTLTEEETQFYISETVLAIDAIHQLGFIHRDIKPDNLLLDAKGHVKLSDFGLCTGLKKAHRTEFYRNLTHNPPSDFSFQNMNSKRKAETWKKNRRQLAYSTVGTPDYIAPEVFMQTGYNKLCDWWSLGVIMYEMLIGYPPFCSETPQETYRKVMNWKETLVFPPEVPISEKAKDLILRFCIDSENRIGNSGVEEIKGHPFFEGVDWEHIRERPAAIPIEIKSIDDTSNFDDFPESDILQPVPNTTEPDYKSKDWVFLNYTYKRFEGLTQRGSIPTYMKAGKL", "test": "Selectivity interaction (KinomeScan (DiscoverX)) EUB0000655a STK38L", "settings": "at 10 µM"}, "[3]": {"target": "Sodium-dependent dopamine transporter (Homo sapiens, UniProt Q01959)", "sequence (Q01959 whole entry)": "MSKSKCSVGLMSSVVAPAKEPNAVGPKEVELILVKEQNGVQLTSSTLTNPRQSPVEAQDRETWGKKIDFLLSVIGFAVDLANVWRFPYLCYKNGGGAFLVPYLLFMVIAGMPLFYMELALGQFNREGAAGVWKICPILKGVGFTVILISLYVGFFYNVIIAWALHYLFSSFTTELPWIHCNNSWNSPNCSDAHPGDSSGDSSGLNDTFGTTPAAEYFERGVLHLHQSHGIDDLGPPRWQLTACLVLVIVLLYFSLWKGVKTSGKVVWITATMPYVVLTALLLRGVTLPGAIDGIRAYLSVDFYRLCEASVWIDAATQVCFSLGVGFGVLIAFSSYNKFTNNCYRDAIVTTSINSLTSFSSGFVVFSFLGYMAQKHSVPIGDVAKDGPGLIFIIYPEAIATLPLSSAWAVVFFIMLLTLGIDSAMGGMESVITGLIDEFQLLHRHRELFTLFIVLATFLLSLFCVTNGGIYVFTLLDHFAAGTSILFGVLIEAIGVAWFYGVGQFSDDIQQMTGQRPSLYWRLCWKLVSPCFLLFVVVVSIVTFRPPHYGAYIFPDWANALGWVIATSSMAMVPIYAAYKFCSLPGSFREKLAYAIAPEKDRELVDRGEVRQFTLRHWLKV", "test": "Selectivity interaction (Dopamine Transporter assay, human recombinant ) EUB0000877a SLC6A3"}, "[4]": {"target": "Protein kinase C theta type (Homo sapiens, UniProt Q04759)", "sequence (Q04759 whole entry, looked up)": "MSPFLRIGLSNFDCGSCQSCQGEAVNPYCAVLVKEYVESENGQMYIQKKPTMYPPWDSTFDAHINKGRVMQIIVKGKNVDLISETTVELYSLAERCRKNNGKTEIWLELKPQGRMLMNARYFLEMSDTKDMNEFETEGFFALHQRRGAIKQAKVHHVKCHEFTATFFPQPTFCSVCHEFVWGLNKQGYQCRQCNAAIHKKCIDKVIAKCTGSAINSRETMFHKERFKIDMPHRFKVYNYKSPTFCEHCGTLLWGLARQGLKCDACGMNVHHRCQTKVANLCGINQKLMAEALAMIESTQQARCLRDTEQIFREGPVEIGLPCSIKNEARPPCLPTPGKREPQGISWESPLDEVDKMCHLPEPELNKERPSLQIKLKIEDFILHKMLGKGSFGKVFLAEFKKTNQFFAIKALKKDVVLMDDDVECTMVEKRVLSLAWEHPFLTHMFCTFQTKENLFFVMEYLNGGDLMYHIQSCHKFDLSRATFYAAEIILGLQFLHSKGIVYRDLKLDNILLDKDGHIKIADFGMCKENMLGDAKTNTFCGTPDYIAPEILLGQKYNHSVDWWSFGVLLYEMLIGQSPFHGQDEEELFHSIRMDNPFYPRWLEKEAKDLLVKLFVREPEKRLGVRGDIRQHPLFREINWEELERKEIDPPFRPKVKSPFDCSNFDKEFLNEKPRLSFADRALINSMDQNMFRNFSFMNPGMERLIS", "test": "Selectivity interaction (Millipore kinase profiler) EUB0000124b PRKCQ", "settings": "at 10 µM"}, "[5]": {"target": "Mitogen-activated protein kinase kinase kinase 11 (Homo sapiens) (UniProt Q16584)", "sequence (Q16584 whole entry, looked up)": "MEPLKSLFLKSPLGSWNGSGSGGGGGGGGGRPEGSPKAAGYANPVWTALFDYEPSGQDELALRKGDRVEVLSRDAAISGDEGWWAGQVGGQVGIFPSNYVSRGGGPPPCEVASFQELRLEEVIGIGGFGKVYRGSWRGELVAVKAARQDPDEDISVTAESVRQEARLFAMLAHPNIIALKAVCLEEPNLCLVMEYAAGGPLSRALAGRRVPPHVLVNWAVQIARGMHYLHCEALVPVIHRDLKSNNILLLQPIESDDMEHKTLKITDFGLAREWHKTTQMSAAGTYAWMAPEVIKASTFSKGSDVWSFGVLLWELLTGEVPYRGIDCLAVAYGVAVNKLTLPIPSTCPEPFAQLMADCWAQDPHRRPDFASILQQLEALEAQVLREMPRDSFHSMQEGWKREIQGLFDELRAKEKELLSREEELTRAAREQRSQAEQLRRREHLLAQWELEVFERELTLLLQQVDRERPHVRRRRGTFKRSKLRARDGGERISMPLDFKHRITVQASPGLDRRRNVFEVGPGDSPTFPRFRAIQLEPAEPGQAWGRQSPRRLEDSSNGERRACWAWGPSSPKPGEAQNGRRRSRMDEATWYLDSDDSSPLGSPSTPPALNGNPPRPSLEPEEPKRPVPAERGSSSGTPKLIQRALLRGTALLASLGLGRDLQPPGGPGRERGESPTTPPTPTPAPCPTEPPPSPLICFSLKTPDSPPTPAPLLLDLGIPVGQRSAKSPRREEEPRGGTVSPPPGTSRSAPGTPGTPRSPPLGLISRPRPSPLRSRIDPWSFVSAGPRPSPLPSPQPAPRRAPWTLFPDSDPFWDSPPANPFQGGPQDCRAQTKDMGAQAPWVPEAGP", "test": "Selectivity interaction (KinomeScan (DiscoverX)) EUB0000607a MAP3K11", "settings": "at 10 µM"}, "[6]": {"target": "T1, Serine/threonine-protein kinase D2 (Homo sapiens) (UniProt Q9BZL6)", "T1 sequence (whole entry)": "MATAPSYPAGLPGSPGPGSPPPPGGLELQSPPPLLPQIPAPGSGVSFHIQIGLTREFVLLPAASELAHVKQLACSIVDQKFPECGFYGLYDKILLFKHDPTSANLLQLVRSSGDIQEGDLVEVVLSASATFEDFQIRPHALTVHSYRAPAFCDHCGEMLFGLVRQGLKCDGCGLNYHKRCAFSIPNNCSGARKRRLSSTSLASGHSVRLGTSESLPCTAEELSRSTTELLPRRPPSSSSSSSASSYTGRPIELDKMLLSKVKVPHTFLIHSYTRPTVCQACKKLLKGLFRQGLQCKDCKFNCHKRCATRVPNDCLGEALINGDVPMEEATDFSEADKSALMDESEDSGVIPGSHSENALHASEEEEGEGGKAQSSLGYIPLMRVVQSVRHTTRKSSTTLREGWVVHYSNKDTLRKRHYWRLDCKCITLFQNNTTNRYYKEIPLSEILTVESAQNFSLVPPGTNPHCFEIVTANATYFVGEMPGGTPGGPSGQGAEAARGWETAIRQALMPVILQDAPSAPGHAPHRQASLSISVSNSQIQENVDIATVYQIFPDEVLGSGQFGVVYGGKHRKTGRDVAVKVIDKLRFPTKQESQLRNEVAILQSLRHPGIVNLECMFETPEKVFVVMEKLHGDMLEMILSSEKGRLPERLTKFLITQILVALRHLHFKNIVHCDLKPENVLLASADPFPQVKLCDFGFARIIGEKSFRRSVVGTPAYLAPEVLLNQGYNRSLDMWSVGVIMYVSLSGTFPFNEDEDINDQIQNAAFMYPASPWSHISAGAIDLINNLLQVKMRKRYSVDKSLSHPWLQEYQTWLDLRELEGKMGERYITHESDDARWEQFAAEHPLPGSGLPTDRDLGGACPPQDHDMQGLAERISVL", "test": "Selectivity interaction (SelectScreen profiling (Invitrogen)) EUB0000607a PRKD2", "settings": "at 2 µM"}, "[7]": {"target": "Serine/threonine-protein kinase pim-2 (Homo sapiens, UniProt Q9P1W9)", "sequence (Q9P1W9 whole entry)": "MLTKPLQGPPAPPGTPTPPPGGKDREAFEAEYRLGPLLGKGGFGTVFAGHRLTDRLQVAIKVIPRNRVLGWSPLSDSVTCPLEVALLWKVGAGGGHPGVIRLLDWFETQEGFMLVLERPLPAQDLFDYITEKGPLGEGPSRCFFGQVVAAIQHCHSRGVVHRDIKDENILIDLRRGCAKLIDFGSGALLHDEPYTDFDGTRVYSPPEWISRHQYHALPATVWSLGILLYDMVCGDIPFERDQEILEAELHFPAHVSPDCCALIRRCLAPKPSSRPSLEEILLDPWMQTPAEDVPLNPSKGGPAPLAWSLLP", "test": "Selectivity interaction (Enzymatic assay (Eurofins)) EUB0001049a PIM2"}, "[8]": {"target": "T2, Phosphatidylinositol 5-phosphate 4-kinase type-2 beta (Homo sapiens) (UniProt P78356)", "T2 sequence (whole entry)": "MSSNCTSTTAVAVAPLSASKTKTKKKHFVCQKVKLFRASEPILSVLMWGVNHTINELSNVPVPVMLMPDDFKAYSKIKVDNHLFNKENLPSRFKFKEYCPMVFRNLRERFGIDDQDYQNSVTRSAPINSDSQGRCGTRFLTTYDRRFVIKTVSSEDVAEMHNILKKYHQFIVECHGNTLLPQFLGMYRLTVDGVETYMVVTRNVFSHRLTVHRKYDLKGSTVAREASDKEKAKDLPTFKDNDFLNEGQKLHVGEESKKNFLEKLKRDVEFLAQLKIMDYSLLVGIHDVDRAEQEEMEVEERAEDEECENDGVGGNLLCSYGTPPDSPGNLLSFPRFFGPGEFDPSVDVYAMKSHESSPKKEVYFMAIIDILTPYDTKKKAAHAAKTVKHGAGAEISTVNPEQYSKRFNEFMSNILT", "test": "Selectivity interaction (KinomeScan (DiscoverX)) EUB0000045b PIP4K2B"}, "[9]": {"target": "Protein kinase C delta type (Homo sapiens) (UniProt Q05655)", "sequence (Q05655 whole entry, looked up)": "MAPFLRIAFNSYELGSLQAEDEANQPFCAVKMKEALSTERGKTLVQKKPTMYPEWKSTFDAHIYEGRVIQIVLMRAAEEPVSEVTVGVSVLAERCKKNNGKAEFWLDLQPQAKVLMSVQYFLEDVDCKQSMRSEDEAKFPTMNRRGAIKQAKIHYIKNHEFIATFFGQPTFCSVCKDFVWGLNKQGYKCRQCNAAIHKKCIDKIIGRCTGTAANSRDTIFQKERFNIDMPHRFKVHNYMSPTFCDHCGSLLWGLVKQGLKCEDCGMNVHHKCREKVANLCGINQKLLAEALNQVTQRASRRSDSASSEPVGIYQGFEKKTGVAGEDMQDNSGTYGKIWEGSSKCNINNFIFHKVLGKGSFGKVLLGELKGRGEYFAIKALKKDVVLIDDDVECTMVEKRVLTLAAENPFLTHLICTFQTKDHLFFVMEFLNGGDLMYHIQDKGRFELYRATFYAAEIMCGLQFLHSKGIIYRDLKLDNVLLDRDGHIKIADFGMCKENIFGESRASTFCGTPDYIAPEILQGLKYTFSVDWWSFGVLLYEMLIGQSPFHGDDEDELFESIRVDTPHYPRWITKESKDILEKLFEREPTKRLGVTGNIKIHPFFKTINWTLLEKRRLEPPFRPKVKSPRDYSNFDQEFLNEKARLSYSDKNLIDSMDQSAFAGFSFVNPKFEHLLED", "test": "Selectivity interaction (KinomeScan (DiscoverX)) EUB0000045b PRKCD"}, "[10]": {"target": "T3, Serine/threonine-protein kinase Nek9 (Homo sapiens) (UniProt Q8TD19)", "T3 sequence (whole entry)": "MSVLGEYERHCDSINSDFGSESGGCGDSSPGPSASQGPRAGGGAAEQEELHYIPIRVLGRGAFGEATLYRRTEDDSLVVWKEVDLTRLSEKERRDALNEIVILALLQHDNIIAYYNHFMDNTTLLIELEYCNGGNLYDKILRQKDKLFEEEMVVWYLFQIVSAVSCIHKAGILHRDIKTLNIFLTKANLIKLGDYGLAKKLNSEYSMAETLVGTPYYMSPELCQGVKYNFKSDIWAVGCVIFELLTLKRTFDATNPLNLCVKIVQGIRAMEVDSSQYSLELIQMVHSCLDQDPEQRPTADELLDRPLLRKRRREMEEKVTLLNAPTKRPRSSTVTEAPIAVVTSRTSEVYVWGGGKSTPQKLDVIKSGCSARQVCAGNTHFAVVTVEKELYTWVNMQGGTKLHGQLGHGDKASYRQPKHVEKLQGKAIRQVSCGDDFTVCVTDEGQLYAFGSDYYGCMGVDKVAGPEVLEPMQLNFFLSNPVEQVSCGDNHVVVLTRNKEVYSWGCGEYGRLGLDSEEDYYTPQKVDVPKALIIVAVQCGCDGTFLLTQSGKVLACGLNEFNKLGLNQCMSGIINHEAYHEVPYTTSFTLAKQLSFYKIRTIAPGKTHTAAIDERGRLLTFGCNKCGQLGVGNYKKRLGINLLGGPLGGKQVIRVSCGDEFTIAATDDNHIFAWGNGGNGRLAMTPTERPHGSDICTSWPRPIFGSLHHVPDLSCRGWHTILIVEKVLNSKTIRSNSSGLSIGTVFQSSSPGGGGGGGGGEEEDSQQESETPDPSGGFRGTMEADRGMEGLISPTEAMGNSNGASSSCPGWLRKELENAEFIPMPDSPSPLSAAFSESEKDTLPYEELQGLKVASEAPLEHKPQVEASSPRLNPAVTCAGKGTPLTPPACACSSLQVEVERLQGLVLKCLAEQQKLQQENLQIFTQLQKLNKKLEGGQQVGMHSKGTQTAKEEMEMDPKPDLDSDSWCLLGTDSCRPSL", "test": "Selectivity interaction (KinomeScan (DiscoverX)) EUB0001619a NEK9", "settings": "at 1 µM"}}, "data": [{"molecule": "COc1cc(N(C)c2ccnc3ccc(C(F)(F)F)cc23)cc(OC)c1OC", "values": [{"measurement": "% binding", "setting": "[1]", "value": 100, "unit": "%"}]}, {"molecule": "CN(C)CCOc1ccc(-c2nc(-c3ccncc3)c(-c3ccc4c(c3)CC/C4=N\\O)[nH]2)cc1", "values": [{"measurement": "% of control", "setting": "[2]", "value": 100, "unit": "%"}]}, {"molecule": "CCC(=O)N1CC[C@H](Nc2ncnc3c2CN(c2cnc(OC)c(C(F)(F)F)c2)CC3)C1", "note": "[LENIOLISIB]", "values": [{"measurement": "IC50", "setting": "[3]", "value": "> 30", "unit": "µM"}]}, {"molecule": "CC(=O)Nc1cccc(-n2c(=O)n(C3CC3)c(=O)c3c(Nc4ccc(I)cc4F)n(C)c(=O)c(C)c32)c1", "values": [{"measurement": "% of control", "setting": "[4]", "value": 114, "unit": "%"}]}, {"molecule": "CNC(=O)Nc1ccc(-c2nc(N3CC4CCC(C3)O4)c3cnn(C4CCC5(CC4)OCCO5)c3n2)cc1", "values": [{"measurement": "% of control", "setting": "[5]", "value": 100, "unit": "%"}, {"measurement": "% of inhibition", "setting": "[6]", "value": 1, "unit": "%"}]}, {"molecule": "COc1cc(Nc2nc(C)cc(-c3cnn4nc(OC)ccc34)n2)cc(C(F)(F)F)c1", "values": [{"measurement": "IC50", "setting": "[7]", "value": "> 10", "unit": "µM"}]}, {"molecule": "C=CC(=O)Nc1cc(-n2c(=O)ccc3cnc4ccc(-c5ccc(NS(C)(=O)=O)cc5)cc4c32)ccc1C", "values": [{"measurement": "% of control", "setting": "[8]; at 1 µM", "value": 93, "unit": "%"}, {"measurement": "% of control", "setting": "[8]; at 10 µM", "value": 63, "unit": "%"}, {"measurement": "% of control", "setting": "[9]; at 1 µM", "value": 41, "unit": "%"}, {"measurement": "% of control", "setting": "[9]; at 10 µM", "value": 91, "unit": "%"}]}, {"molecule": "N#Cc1cccc(-c2c[nH]c3ncnc(N4CCOCC4)c23)c1", "values": [{"measurement": "% of control", "setting": "[10]", "value": 97, "unit": "%"}]}]}
